Results published in patent publication US9896440B2, “Aryl substituted heterocyclyl sulfones” (GRÜNENTHAL GMBH, priority 2014, dated 2018).

Target: T1, Human CaV2.2 channels (Homo sapiens, UniProt Q00975)
T1 construct: expressed in transfected cells; Kir2.3 also stably co-expressed
Assay: Fluorescence assay for CaV2.2 channels using potassium depolarization to induce channel opening (FLIPR, Fluo 4)
Format: cell-based
Settings: 30 mM KCl assay buffer (inactivated channel state), HEK293 cells; for inhibition at 3 µM: HEK293, 3 μM test compound, read-out: Activity Category: %-Inhib (CaV2.2) @3 μM @30 mM KCl; for Activity Category: %-Inhib (CaV2.2) @3 μM @30 mM KCl: 3 μM test compound
Excerpt: In the process, the Ca^2+ influx is quantified in the FLIPR assay with the aid of a Ca^2+-sensitive dye (type Fluo-4, Molecular Probes Europe BV, Leiden, the Netherlands) in a fluorescent imaging plate reader (FLIPR 3, Molecular Devices, Sunnyvale, USA), as described hereinafter.
Human CaV2.2 channels were stably expressed in HEK293 cells together with alpha2-delta and beta subunits of voltage gated calcium channels. In addition, an inwardly rectifying potassium channel (Kir2.3) was stably expressed in these cells to augment control of the cell membrane potential by the concentration of extracellular potassium ions. Raise of the extracellular potassium concentration leads to depolarization of the membrane potential and thus regulates the voltage dependent state of CaV2.2 channels. For preparation, cells were seeded in black poly-D-lysine coated 96-well plates (Becton Dickinson, Biocoat 4640) in 100 μL medium [500 mL DMEM/F-12 plus Glutamax (Invitrogen 31331-093) plus 5.5 mL MEM NEAA 100× (Invitrogen 11140-035) plus 50 mL FBS decomplemented (Invitrogen 10270-106) plus 200 μg/mL Geneticin (Invitrogen 10131-027) plus 50 μg/mL Hygromycin B (Invitrogen 10687-010) plus 2 μg/mL Blasticidin (anti-bl5b Invivo-Gen) plus 0.2 μg/mL Puromycin (A 11138-03)] at a cell density of 30.000 cells per well. Plates were incubated at 37° C. (5% CO2) for 20 to 23 h. On the day of experiment medium was discarded and cells were loaded with Fluo 4 by addition of 100 μL of basic assay buffer (10 mM HEPES, 1 mM KCl, 149 mM NaCl, 0.8 mM CaCl2, 1.7 mM MgCl2, 10 mM Glucose, 0.1% BSA. pH 7.4) containing 2 μM Fluo 4 (Molecular Probes; F-14201), 0.01% pluronic acid (Molecular Probes; P-6866) and 2.5 mM probenecid (Molecular Probes; P36400). Cells were incubated in the dark at 25° C. for 60 min. Then dye containing buffer was discarded and 100 μL basic (1 mM KCl) or alternative (30 mM KCl) assay buffer was added. The alternative assay buffer contained altered concentrations of KCl (30 mM) and NaCl (120 mM) and was used in order to promote the inactivated channel state. After that 25 μL of basic or alternative assay buffer with or without test compound were added and cells were incubated again in the dark at 25° C. for 15 min. Fluorescence intensity was measured on a FLIPR 3 instrument (Molecular Devices Corp., Sunnyvale, Calif.) with excitation at 480 nm and emission at 535 nm. After continuously reading fluorescence for 30 sec, 50 μL of basic assay buffer containing 210 mM KCl (NaCl omitted) were added for depolarization. Peak fluorescent signal intensity was determined and the amplitude of the peak signal, normalized to base line, was used to measure channel inhibition by test compounds.

T1 sequence (Q00975 whole entry): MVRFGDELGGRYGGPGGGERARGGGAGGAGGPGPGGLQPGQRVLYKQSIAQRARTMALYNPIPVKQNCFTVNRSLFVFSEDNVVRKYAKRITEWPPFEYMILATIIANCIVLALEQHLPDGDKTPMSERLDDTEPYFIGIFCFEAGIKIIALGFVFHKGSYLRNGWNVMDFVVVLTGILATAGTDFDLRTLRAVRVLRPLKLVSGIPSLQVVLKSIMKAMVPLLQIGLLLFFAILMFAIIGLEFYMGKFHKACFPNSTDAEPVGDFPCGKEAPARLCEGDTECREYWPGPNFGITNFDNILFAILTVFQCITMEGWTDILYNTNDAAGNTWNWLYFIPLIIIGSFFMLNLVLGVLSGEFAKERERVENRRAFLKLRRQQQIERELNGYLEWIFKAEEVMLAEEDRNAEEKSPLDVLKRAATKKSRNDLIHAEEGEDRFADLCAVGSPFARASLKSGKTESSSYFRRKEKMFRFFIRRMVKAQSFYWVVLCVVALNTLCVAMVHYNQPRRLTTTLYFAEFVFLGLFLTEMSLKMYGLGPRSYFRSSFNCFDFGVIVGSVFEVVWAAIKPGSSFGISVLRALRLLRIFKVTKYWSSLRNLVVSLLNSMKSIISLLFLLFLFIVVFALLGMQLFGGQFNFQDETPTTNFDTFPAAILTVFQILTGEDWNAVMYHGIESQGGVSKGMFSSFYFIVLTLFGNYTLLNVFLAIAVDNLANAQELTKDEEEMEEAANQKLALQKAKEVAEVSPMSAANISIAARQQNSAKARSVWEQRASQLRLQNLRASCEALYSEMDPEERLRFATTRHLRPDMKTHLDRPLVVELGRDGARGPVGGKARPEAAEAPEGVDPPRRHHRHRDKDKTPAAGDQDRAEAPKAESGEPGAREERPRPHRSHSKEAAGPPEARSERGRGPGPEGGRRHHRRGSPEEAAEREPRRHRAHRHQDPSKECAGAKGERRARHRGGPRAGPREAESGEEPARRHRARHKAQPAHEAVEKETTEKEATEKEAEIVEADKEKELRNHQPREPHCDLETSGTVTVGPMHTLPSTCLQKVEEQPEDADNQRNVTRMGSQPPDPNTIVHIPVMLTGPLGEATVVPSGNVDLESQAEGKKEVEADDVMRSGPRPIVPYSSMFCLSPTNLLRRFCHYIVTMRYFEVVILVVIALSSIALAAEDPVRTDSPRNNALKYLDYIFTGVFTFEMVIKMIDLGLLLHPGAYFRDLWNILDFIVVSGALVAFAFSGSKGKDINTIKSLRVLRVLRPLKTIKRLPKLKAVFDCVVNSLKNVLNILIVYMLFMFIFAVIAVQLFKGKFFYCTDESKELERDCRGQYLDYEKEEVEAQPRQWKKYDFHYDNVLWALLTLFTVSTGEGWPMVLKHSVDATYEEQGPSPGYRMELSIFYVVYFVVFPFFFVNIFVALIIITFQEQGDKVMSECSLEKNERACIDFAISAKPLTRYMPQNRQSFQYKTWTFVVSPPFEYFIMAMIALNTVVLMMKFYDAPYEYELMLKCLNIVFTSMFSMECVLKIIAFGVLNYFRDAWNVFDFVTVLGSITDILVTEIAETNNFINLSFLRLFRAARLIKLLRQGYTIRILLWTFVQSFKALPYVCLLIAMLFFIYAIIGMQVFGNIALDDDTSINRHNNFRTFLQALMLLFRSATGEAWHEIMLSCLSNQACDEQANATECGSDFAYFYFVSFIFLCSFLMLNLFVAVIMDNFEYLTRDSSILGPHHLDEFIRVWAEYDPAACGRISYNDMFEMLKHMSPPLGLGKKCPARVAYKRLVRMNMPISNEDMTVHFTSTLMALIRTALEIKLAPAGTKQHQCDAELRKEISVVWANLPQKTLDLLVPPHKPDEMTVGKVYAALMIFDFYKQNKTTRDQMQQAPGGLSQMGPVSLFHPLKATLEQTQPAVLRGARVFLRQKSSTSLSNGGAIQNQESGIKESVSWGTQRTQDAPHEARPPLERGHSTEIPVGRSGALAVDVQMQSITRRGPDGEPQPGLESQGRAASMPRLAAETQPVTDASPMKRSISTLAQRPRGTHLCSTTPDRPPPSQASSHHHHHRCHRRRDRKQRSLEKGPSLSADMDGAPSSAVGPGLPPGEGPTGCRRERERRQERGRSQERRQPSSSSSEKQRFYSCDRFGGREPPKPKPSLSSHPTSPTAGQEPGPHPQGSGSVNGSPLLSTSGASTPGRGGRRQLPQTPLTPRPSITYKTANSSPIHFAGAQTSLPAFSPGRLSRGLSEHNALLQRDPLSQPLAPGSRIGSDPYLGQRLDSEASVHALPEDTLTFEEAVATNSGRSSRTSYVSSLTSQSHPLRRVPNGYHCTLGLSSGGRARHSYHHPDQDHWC

CC1(C)CC(C)(S(=O)(=O)c2cccc(C(F)(F)F)c2)CC(c2ccc(Cl)cc2)O1 (racemic) [SC-302, 6-(4-Chlorophenyl)-2,2,4-trimethyl-4-[[3-(trifluoromethyl)phenyl]sulfonyl]-tetrahydro-pyran]
inhibition at 3 µM: 75 to 95%

CC1(S(=O)(=O)c2cc(F)cc(C(F)(F)F)c2)CCOC(c2ccc(Cl)cc2)C1 (racemic) [SC-305, 2-(4-Chlorophenyl)-4-[[3-fluoro-5-(trifluoromethyl)-phenyl]sulfonyl]-4-methyl-tetrahydro-pyran]
inhibition at 3 µM: 75 to 95%

CC1(S(=O)(=O)c2cccc(OC(F)(F)F)c2)CCOC(c2ccc(Cl)cc2)C1 (racemic) [SC-315, 2-(4-Chlorophenyl)-4-methyl-4-[[3-(trifluoromethyloxy)-phenyl]sulfonyl]-tetrahydro-pyran]
inhibition at 3 µM: > 95%

CC1(S(=O)(=O)c2cccc(OC(F)(F)F)c2)CCOC(c2ccc(S(C)(=O)=O)cc2F)C1 (racemic) [SC-504, 2-(2-Fluoro-4-methylsulfonyl-phenyl)-4-methyl-4-[[3-(trifluoromethyloxy)-phenyl]sulfonyl]-tetrahydro-pyran]
inhibition at 3 µM: > 95%

CC(C)c1cccc(S(=O)(=O)C2(C)CCOC(c3ccc(S(C)(=O)=O)cc3F)C2)c1 (racemic) [SC-505, 2-(2-Fluoro-4-methylsulfonyl-phenyl)-4-[(3-isopropyl-phenyl)sulfonyl]-4-methyl-tetrahydro-pyran]
inhibition at 3 µM: > 95%

CC1(S(=O)(=O)c2cccc(C(F)F)c2)CCOC(c2ccc(S(C)(=O)=O)cc2F)C1 (racemic) [SC-508, 4-[[3-(Difluoro-methyl)-phenyl]sulfonyl]-2-(2-fluoro-4-methylsulfonyl-phenyl)-4-methyl-tetrahydro-pyran]
inhibition at 3 µM: 75 to 95%

CC(C)Oc1cccc(S(=O)(=O)C2(C)CCOC(c3ccc(S(C)(=O)=O)cc3F)C2)c1 (racemic) [SC-511, 2-(2-Fluoro-4-methylsulfonyl-phenyl)-4-[(3-isopropoxy-phenyl)sulfonyl]-4-methyl-tetrahydro-pyran]
inhibition at 3 µM: 75 to 95%

CC1(S(=O)(=O)c2cccc(C3CC3)c2)CCOC(c2ccc(S(C)(=O)=O)cc2F)C1 (racemic) [SC-514, 4-[(3-Cyclopropyl-phenyl)sulfonyl]-2-(2-fluoro-4-methylsulfonyl-phenyl)-4-methyl-tetrahydro-pyran]
inhibition at 3 µM: > 95%

CC1(S(=O)(=O)c2cc(F)cc(C(F)(F)F)c2)CCOC(c2ccc(S(C)(=O)=O)cc2F)C1 (racemic) [SC-515, 2-(2-Fluoro-4-methylsulfonyl-phenyl)-4-[[3-fluoro-5-(trifluoromethyl)-phenyl]sulfonyl]-4-methyl-tetrahydro-pyran]
inhibition at 3 µM: > 95%

CC1(S(=O)(=O)c2cccc(OC(F)F)c2)CCOC(c2ccc(S(C)(=O)=O)cc2F)C1 (racemic) [SC-520, 4-[[3-(Difluoro-methoxy)-phenyl]sulfonyl]-2-(2-fluoro-4-methylsulfonyl-phenyl)-4-methyl-tetrahydro-pyran]
inhibition at 3 µM: 75 to 95%

CC1(S(=O)(=O)c2cccc(C(F)(F)F)c2)CCC(c2ccc(Cl)cc2)OC1 (single isomer, unassigned) [SC-116, 2-(4-Chlorophenyl)-5-methyl-5-[[3-(trifluoromethyl)phenyl]sulfonyl]-tetrahydro-pyran]
inhibition at 3 µM: 40 to 75%

CC1(c2ccc(Cl)cc2)CC(S(=O)(=O)c2cccc(C(F)(F)F)c2)CCO1 (single isomer, unassigned) [SC-117, 2-(4-Chlorophenyl)-2-methyl-4-[[3-(trifluoromethyl)phenyl]sulfonyl]-tetrahydro-pyran]
inhibition at 3 µM: > 95%

CC1(S(=O)(=O)c2cccc(C(F)(F)F)c2)CCOC(COc2ccc(Cl)cc2)C1 (single isomer, unassigned) [SC-127, 2-((4-chlorophenoxy)methyl)-4-methyl-4-((3-(trifluoromethyl)phenyl)sulfonyl)tetrahydro-2H-pyran]
inhibition at 3 µM: > 95%

CC1(S(=O)(=O)c2cccc(C(F)(F)F)c2)CCOC(Cc2ccc(Cl)cc2)C1 (single isomer, unassigned) [SC-130, 2-[(4-Chlorophenyl)-methyl]-4-methyl-4-[[3-(trifluoromethyl)phenyl]sulfonyl]-tetrahydro-pyran]
inhibition at 3 µM: 75 to 95%

CC1(S(=O)(=O)c2cccc(C(F)(F)F)c2)CCOC(c2ccc(S(C)(=O)=O)c(S(C)(=O)=O)c2)C1 (single isomer, unassigned) [SC-132, 2-[3,4-Bis(methylsulfonyl)-phenyl]-4-methyl-4-[[3-(trifluoromethyl)phenyl]sulfonyl]-tetrahydro-pyran]
inhibition at 3 µM: 75 to 95%

CC1(S(=O)(=O)c2cccc(C(F)(F)F)c2)CCOC(c2ccc(S(C)(=O)=O)c(S(C)(=O)=O)c2)C1 (single isomer, unassigned) [SC-133, 2-[3,4-Bis(methylsulfonyl)-phenyl]-4-methyl-4-[[3-(trifluoromethyl)phenyl]sulfonyl]-tetrahydro-pyran]
Activity Category: %-Inhib (CaV2.2) @3 μM @30 mM KCl: A (%-Inhibition >95%)

CC1(S(=O)(=O)c2cccc(C(F)(F)F)c2)CCOC(c2ccc(-n3cncn3)cc2)C1 (single isomer, unassigned) [SC-134, 1-[4-[4-Methyl-4-[[3-(trifluoromethyl)phenyl]sulfonyl]-tetrahydro-pyran-2-yl]-phenyl]-1H-[1,2,4]triazole]
inhibition at 3 µM: 75 to 95%

CC1(S(=O)(=O)c2cccc(C(F)(F)F)c2)CCOC(c2ccc(-n3cncn3)cc2)C1 (single isomer, unassigned) [SC-135, 1-[4-[4-Methyl-4-[[3-(trifluoromethyl)phenyl]sulfonyl]-tetrahydro-pyran-2-yl]-phenyl]-1H-[1,2,4]triazole]
Activity Category: %-Inhib (CaV2.2) @3 μM @30 mM KCl: A (%-Inhibition >95%)

CC1(S(=O)(=O)c2cccc(C(F)(F)F)c2)CCOC(c2ccc(F)c(C#N)c2)C1 (single isomer, unassigned) [SC-136, 2-Fluoro-5-[4-methyl-4-[[3-(trifluoromethyl)phenyl]sulfonyl]-tetrahydro-pyran-2-yl]-benzonitrile]
inhibition at 3 µM: > 95%

CC1(S(=O)(=O)c2cccc(C(F)(F)F)c2)CCOC(c2ccc(F)c(C(N)=O)c2)C1 (single isomer, unassigned) [SC-138, 2-Fluoro-5-[4-methyl-4-[[3-(trifluoromethyl)phenyl]sulfonyl]-tetrahydro-pyran-2-yl]-benzamide]
Activity Category: %-Inhib (CaV2.2) @3 μM @30 mM KCl: C (%-Inhibition >40% up to ≦75%)

CC1(S(=O)(=O)c2cccc(C(F)(F)F)c2)CCOC(c2ccc(F)c(C(N)=O)c2)C1 (single isomer, unassigned) [SC-139, 2-Fluoro-5-[4-methyl-4-[[3-(trifluoromethyl)phenyl]sulfonyl]-tetrahydro-pyran-2-yl]-benzamide]
Activity Category: %-Inhib (CaV2.2) @3 μM @30 mM KCl: B (%-Inhibition >75% up to ≦95%)

CC1(S(=O)(=O)c2cc(F)cc(C(F)(F)F)c2)CCOC(c2ccc(S(C)(=O)=O)cc2)C1 (single isomer, unassigned) [SC-142, 4-[[3-Fluoro-5-(trifluoromethyl)-phenyl]sulfonyl]-4-methyl-2-(4-methylsulfonyl-phenyl)-tetrahydro-pyran]
inhibition at 3 µM: 75 to 95%

CC1(S(=O)(=O)c2cccc(C(F)(F)F)c2)CCOC(COc2ccc(S(C)(=O)=O)cc2F)C1 (single isomer, unassigned) [SC-148, 2-[(2-Fluoro-4-methylsulfonyl-phenoxy)-methyl]-4-methyl-4-[[3-(trifluoromethyl)phenyl]sulfonyl]-tetrahydro-pyran]
inhibition at 3 µM: 75 to 95%

CC1(S(=O)(=O)c2cccc(C(F)(F)F)c2)CCOC(COc2ccc(S(C)(=O)=O)cc2F)C1 (single isomer, unassigned) [SC-149, 2-[(2-Fluoro-4-methylsulfonyl-phenoxy)-methyl]-4-methyl-4-[[3-(trifluoromethyl)phenyl]sulfonyl]-tetrahydro-pyran]
Activity Category: %-Inhib (CaV2.2) @3 μM @30 mM KCl: A (%-Inhibition >95%)

CC1(S(=O)(=O)c2cccc(C(F)(F)F)c2)CCOC(COc2ccc(S(C)(=O)=O)c(F)c2)C1 (single isomer, unassigned) [SC-150, 2-[(3-Fluoro-4-methylsulfonyl-phenoxy)-methyl]-4-methyl-4-[[3-(trifluoromethyl)phenyl]sulfonyl]-tetrahydro-pyran]
inhibition at 3 µM: 75 to 95%
